This note sets out measurements from patent US8993585B2, “Cyclic amine substituted pyrimidinediamines as PKC inhibitors” (Rigel Pharmaceuticals, Inc., priority 2007, dated 2015).

Usually IC50 stands for the concentration that gives 50% inhibition. Low readings indicate higher potency, high ones lower potency.

The experiment has as its system Human primary T cells. Put plainly: IL-2 ELISA, Human Primary T Cell, Anti-CD3+CD28+ (Example 3). The class given is cell-based. The conditions noted are these: anti-CD3+CD28 stimulation. In short, it runs like this: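 IL-2 was read by ELISA after stimulation on wells pre-coated with 1 ug/ml αCD3 and 5 μg/ml αCD28. Before this, 100,000 human primary T cells per well spent 1 h at 37 °C with test compound in Yssel's medium. The counter-screen replaced antibody stimulation with PMA (0.5 ng/ml final) and ionomycin (0.1 uM final).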

For the setting “24 hours”, `CC1(C)CC(Nc2nc(Nc3ccc(OCCN4CCOCC4)c(Cl)c3)ncc2C#N)CC(C)(C)N1` [Compound I-445] returned an IC50 of 910 nM. On to `COc1ccc(Nc2ncc(F)c(NC3CC(C)(C)N(C)C(C)(C)C3)n2)cc1-c1ccncc1` [Compound I-193], for which, where the note is “24 hours”, half-maximal inhibition (IC50) required 653 nM. Compound `CN1C(C)(C)CC(Nc2nc(Nc3cc4c(cc3F)OC(F)(F)C(F)(F)O4)ncc2F)CC1(C)C` [II-123] came in with an IC50 (Homo sapiens, T-cell, 24 h) of 880 nM. That is a sub-micromolar value. In turn, `CC1CC(c2ccc(Nc3ncc(F)c(NC4CC(C)(C)N(C)C(C)(C)C4)n3)cc2)CC(C)O1` (stereo not drawn) [Compound I-222] gave a 50% inhibitory concentration (IC50) (24 hours) of 1530 nM. For the setting “Homo sapiens, T-cell, 24 h”, `C#Cc1cnc(Nc2ccc3c(c2)OC(C)(C)C(=O)N3CC)nc1NC1CC(C)(C)N(C)C(C)(C)C1` [II-152] showed an IC50 of 540 nM. The same measure, in the same setting: to `COc1cc(Nc2ncc(F)c(NC3CC(C)(C)N(C)C(C)(C)C3)n2)cc(-n2nnnc2C)c1` [Compound I-358] belongs 29.5 nM. Turning to `COc1ccc(Nc2ncc(C(F)(F)F)c(NC3CC(C)(C)N(C)C(C)(C)C3)n2)cc1Cl` [Compound I-32], the half-inhibitory concentration (IC50) (24 hours) is 328 nM. Same read-out and setting: to `CC1(C)CC(Nc2nc(Nc3cc(OCC(F)(F)F)cc(OCC(F)(F)F)c3)ncc2C(N)=O)CC(C)(C)N1` [Compound I-408] belongs 1040 nM.

As for `CCCN1C(=O)COc2cc(Nc3ncc(F)c(NC4CC(C)(C)N(C)C(C)(C)C4)n3)ccc21` [II-59], the IC50 (Homo sapiens, T-cell, 24 h) is 148 nM.

Consider `CN1CCN(Cc2ccc(Nc3ncc(F)c(NC4CC(C)(C)N(C)C(C)(C)C4)n3)cc2C(F)(F)F)CC1` [Compound I-52], for which the midpoint of inhibition (24 hours), the IC50, lay at 133 nM. `COc1cc(Nc2ncc(F)c(NC3CC(C)(C)NC(C)(C)C3)n2)cc(OCCn2cccc2)c1` [Compound I-438] returned an IC50 (Homo sapiens, T-cell, 24 h) of 300 nM. As for `CN1C(C)(C)CC(Nc2nc(Nc3ccc(F)c(-c4cccnc4)c3)ncc2F)CC1(C)C` [Compound I-180], the IC50 (24 hours) is 914 nM. In other words, the sub-micromolar range. On to `CCN1C(=O)C(F)(F)Oc2cc(Nc3ncc(C#N)c(NC4CC(C)(C)N(C)C(C)(C)C4)n3)cnc21` [II-65], for which the IC50 (Homo sapiens, T-cell, 24 h) is 255 nM. For the compound `CN1CCN(c2ccc(Nc3ncc(F)c(N(C)C4CC(C)(C)N(C)C(C)(C)C4)n3)cc2Cl)CC1` [Compound I-60], the 50% inhibitory concentration (IC50) (24 hours) amounted to 524 nM. This lies in the sub-micromolar range. The same measure, in the same setting: as for `CCN(CC)C1CCC(Nc2nc(Nc3ccc(N4CCN(C)CC4)c(C(F)(F)F)c3)ncc2F)CC1` (stereo not drawn) [IV-7, N4-(4-Diethylamino)cyclohexyl-5-fluoro-N2-[4-(4-methylpiperazino)-3-trifluoromethyl]phenyl-2,4-pyrimidinediamine], the figure is 3620 nM.

Turning to `CCCN1C(=O)COc2cc(Nc3ncc(C#N)c(NC4CC(C)(C)N(C)C(C)(C)C4)n3)ccc21` [II-72], the 50% inhibitory concentration (IC50) (Homo sapiens, T-cell, 24 h) amounted to 168 nM. On to `Cc1nc2ccc(Nc3ncc(F)c(NC4CC(C)(C)N(C)C(C)(C)C4)n3)cc2[nH]1` [II-9], for which, under “Homo sapiens, T-cell, 24 h”, the IC50 came to 12300 nM. In turn, `COc1cc(Nc2ncc(F)c(NC3CC(C)(C)N(C)C(C)(C)C3)n2)cc(OCCN2CCOCC2)c1` [Compound I-431] displayed an IC50 (Homo sapiens, T-cell, 24 h) of 450 nM. The same measure, in the same setting: to `COc1cc(Nc2ncc(F)c(NC3CC(C)(C)N(C)C(C)(C)C3)n2)cc(OCCn2cccc2)c1` [Compound I-437] belongs 170 nM. The same measure, in the same setting: as for `Cc1ccc(Nc2ncc(F)c(N(Cc3ccc(-c4ccccc4)cc3)C3CC(C)(C)N(C)C(C)(C)C3)n2)cc1C#N` [Compound I-318], the figure is 2510 nM; as for `CN1C(C)(C)CC(Nc2nc(Nc3ncc([N+](=O)[O-])s3)ncc2F)CC1(C)C` [II-14], 2570 nM.

Regarding `CN1C(C)(C)CC(Nc2nc(Nc3ccc4c(c3)OCCCO4)ncc2F)CC1(C)C` [II-43], the midpoint of inhibition (Homo sapiens, T-cell, 24 h), the IC50, lay at 1470 nM. The same measure, in the same setting: as for `CC(C)n1c(=O)oc2cc(Nc3ncc(C#N)c(NC4CC(C)(C)N(C)C(C)(C)C4)n3)ccc21` [II-70], the figure is 327 nM; as for `CN1C(=O)C(C)(C)Sc2cc(Nc3ncc(F)c(NC4CC(C)(C)N(C)C(C)(C)C4)n3)ccc21` [II-62], 38.3 nM. Compound `CN1CCN(c2ccc(Nc3ncc(C(N)=O)c(NC4CC(C)(C)N(C)C(C)(C)C4)n3)cc2Cl)CC1` [Compound I-98] gave an IC50 (24 hours) of 1070 nM. Where the note is “T-cell, 24 hours”, `CN1C(C)(C)CC(N(Cc2ccccc2)c2nc(Nc3ccc4c(c3)OCCO4)ncc2F)CC1(C)C` [II-86] showed an IC50 of 1260 nM. For the setting “24 hours”, `Cc1nnnn1-c1cccc(Nc2ncc(F)c(NC3CC(C)(C)N(C)C(C)(C)C3)n2)c1` [Compound I-396] yielded an IC50 of 100 nM. Regarding `CN1C(=O)c2ccc(Nc3ncc(F)c(NC4CC(C)(C)N(C)C(C)(C)C4)n3)cc2C1=O` [II-149], for the setting “Homo sapiens, T-cell, 24 h”, the IC50 came out at 990 nM. Consider `COc1cc(Nc2ncc(F)c(NC3CC(C)(C)N(C)C(C)(C)C3)n2)ccc1-n1nnnc1C` [Compound I-407], for which, for the setting “24 hours”, the 50% inhibitory concentration (IC50) stood at 2690 nM. In turn, `CN1CCc2cc(Nc3ncc(F)c(NC4CC(C)(C)N(C)C(C)(C)C4)n3)ccc21` [II-51] gave an IC50 (Homo sapiens, T-cell, 24 h) of 4880 nM. For the setting “24 hours”, `CN1C(C)(C)CC(Nc2nc(Nc3ccc(C(=O)NC4CC4)c(C(F)(F)F)c3)ncc2F)CC1(C)C` [Compound I-230] registered an IC50 of 1090 nM. Still for that read-out and setting: as for `COc1ccc(Nc2ncc(F)c(NC3CC(C)(C)N(C(C)=O)C(C)(C)C3)n2)cc1Cl` [Compound I-213], the figure is 19600 nM; as for `COC(=O)N1CCN(c2ccc(Nc3ncc(F)c(NC4CC(C)(C)N(C)C(C)(C)C4)n3)cc2C(F)(F)F)CC1` [Compound I-47], 136 nM; as for `CN1C(C)(C)CC(Nc2nc(Nc3ccc(C#N)c(C(F)(F)F)c3)ncc2F)CC1(C)C` [Compound I-152], 604 nM. Regarding `COc1cc(O)cc(Nc2ncc(F)c(NC3CC(C)(C)NC(C)(C)C3)n2)c1` [Compound I-453], the half-maximal inhibitory concentration (IC50) (Homo sapiens, T-cell, 24 h) is 1050 nM.

The compound `COc1cc(Nc2ncc(C#N)c(NC3CC(C)(C)NC(C)(C)C3)n2)cc(-n2nnnc2C)c1` [Compound I-402] showed an IC50 (24 hours) of 470 nM. On the same count and under the same terms, as for `Cc1cc(Nc2ncc(F)c(NC3CC(C)(C)N(C)C(C)(C)C3)n2)ccc1-n1cnnn1` [Compound I-397], the figure is 1980 nM; as for `CN1C(C)(C)CC(Nc2nc(Nc3cccc(-c4cnn(C)c4)c3)ncc2F)CC1(C)C` [Compound I-143], 1410 nM; as for `CC1(C)CC(Nc2nc(Nc3cc(OCC(F)(F)F)cc(OCC(F)(F)F)c3)ncc2C#N)CC(C)(C)N1` [Compound I-419], 270 nM.

The compound `CN1C(C)(C)CC(Nc2nc(Nc3cccc(C(N)=O)c3)ncc2F)CC1(C)C` [Compound I-24] had a concentration for half-maximal inhibition (IC50) (24 hours) of 1520 nM. The same measure, in the same setting: as for `CN1C(C)(C)CC(Nc2nc(Nc3ccc(-c4cc5ccccc5s4)c(Cl)c3)ncc2F)CC1(C)C` [Compound I-156], the figure is 2890 nM. Turning to `CN1C(C)(C)CC(Nc2nc(Nc3nc(-c4ccc5c(c4)OCCO5)cs3)ncc2F)CC1(C)C` [II-132], half-maximal inhibition (Homo sapiens, T-cell, 24 h) (IC50) was put at 840 nM. Still for that read-out and setting: to `CN1C(C)(C)CC(Nc2nc(Nc3ccc4cnn(C)c4c3)ncc2F)CC1(C)C` [II-41] belongs 1610 nM.

Where the note is “24 hours”, `CCN1C(=O)C(F)(F)Oc2cc(Nc3ncc(C#N)c(NC4CC(C)(C)NC(C)(C)C4)n3)cnc21` [II-73] registered an IC50 of 1180 nM.

`CN1C(C)(C)CC(Nc2nc(Nc3ccc4c(c3)OCCO4)ncc2C#C[Si](C)(C)C)CC1(C)C` [II-150] had a concentration for half-maximal inhibition (IC50) (T-cell, 24 hours) of 3580 nM. In other words, the single-digit micromolar range.

`CCNC(=O)Nc1cccc(Nc2ncc(F)c(NC3CC(C)(C)N(C)C(C)(C)C3)n2)c1` [Compound I-138]: half-maximal inhibition (24 hours) (IC50) was put at 3150 nM. In other words, the single-digit micromolar range. `CCN1CCc2cc(Nc3ncc(F)c(NC4CC(C)(C)N(C)C(C)(C)C4)n3)ccc21` [II-52]: 5610 nM corresponded to half-maximal inhibition (Homo sapiens, T-cell, 24 h) (IC50). The same measure, in the same setting: to `CN(C)c1ccc(-c2ccc(Nc3ncc(F)c(NC4CC(C)(C)N(C)C(C)(C)C4)n3)cc2C#N)cn1` [Compound I-426] belongs 420 nM.
